Legend:
Thromboxane A2 receptor = target: T1, Thromboxane A2 receptor (Homo sapiens, UniProt P21731); test: ChEBML_209427
T1 sequence (P21731 whole entry): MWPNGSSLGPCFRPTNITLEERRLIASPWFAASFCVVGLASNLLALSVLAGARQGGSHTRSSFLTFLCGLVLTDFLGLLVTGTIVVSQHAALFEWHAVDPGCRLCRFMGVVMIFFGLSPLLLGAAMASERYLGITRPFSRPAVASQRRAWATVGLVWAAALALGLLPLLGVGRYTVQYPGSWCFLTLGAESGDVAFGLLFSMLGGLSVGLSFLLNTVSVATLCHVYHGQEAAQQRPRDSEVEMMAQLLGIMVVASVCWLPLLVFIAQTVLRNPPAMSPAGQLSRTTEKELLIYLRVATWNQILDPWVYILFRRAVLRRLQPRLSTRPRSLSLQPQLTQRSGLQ
Description: Inhibitory activity against U-46,619-induced responses in human platelet aggregation (Thromboxane A2 alpha receptor)

[1] = Inhibitory activity against U-46,619-induced responses in human platelet aggregation (Thromboxane A2 alpha receptor)

Row | IC50 (Thromboxane A2 receptor) | IC50 [1] | Structure (SMILES)
1 | 158 µM |  | COc1cc(CC2NCCc3c(F)c(O)c(O)c(F)c32)cc(OC)c1OC (stereo unspecified) [TMQ, 5,8-Difluoro]
2 | 120 µM |  | COc1cc(CC2NCCc3c2cc(O)c(O)c3I)cc(OC)c1OC (stereo unspecified) [TMQ, 5-Iodo]
3 | 832 µM |  | COc1cc(CC2NCCc3c2cc(O)c(O)c3C(F)(F)F)cc(OC)c1OC (stereo unspecified) [TMQ, 5-TrifluoroMe]
4 | 3.09 µM |  | COc1cc(CC2NCCc3cc(O)c(O)c(I)c32)cc(OC)c1OC (stereo unspecified) [TMQ, 8-Iodo]
5 |  | 2.46 µM | COc1cc(C[C@H]2NCCc3cc(O)c(O)c(F)c32)cc(OC)c1OC [TMQ, R-(-)-8-Fluoro]
6 |  | 39.8 µM | COc1cc(C[C@@H]2NCCc3cc(O)c(O)c(F)c32)cc(OC)c1OC [TMQ, S-(+)-8-Fluoro]
